Measured values as given in patent US9738612B2, “Methylacryloyl benzimidazolone derivative and anti-tumour use thereof” (SHANGHAI NATURE STANDARD R&D AND BIOTECH CO., LTD, priority 2014, dated 2017).

Tests used:
Assay in all cases: Tumor-associated kinase inhibition test
Type in all cases: biochemical
[1] = target: T1, Abl(T315I)(h) (Homo sapiens, UniProt P00519, T315I); conditions: read-out: Inhibitory rate (%)
T1 construct: purchased Eurofins Pharma Discovery Services UK Limited (contract assay service)
Description: (§1) Eurofins Pharma Discovery Services UK Limited completed and reported this experiment.

[2] = target: T2, B-Raf(h) (Homo sapiens, UniProt P15056); conditions: read-out: Inhibitory rate (%)
T2 construct: purchased Eurofins Pharma Discovery Services UK Limited (contract assay service)
Description: as §1

[3] = target: T3, BTK(h) (Homo sapiens, UniProt Q06187); conditions: read-out: Inhibitory rate (%)
T3 construct: purchased Eurofins Pharma Discovery Services UK Limited (contract assay service)
Description: as §1

[4] = target: T4, Blk(h) (Homo sapiens, UniProt P51451); conditions: read-out: Inhibitory rate (%)
T4 construct: purchased Eurofins Pharma Discovery Services UK Limited (contract assay service)
Description: as §1

[5] = target: T5, CDK5/p35(h) (Homo sapiens, UniProt Q00535); conditions: read-out: Inhibitory rate (%)
T5 construct: purchased Eurofins Pharma Discovery Services UK Limited (contract assay service)
T5 sequence (Q00535 whole entry): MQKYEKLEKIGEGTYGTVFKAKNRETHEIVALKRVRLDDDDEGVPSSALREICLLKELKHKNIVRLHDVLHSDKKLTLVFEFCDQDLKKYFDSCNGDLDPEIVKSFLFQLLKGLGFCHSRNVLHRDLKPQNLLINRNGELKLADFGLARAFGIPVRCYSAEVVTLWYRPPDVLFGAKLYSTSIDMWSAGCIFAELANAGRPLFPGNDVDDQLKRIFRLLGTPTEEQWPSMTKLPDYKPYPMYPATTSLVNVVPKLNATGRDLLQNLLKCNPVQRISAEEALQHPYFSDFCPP
T5 sequence (Q15078 whole entry partner): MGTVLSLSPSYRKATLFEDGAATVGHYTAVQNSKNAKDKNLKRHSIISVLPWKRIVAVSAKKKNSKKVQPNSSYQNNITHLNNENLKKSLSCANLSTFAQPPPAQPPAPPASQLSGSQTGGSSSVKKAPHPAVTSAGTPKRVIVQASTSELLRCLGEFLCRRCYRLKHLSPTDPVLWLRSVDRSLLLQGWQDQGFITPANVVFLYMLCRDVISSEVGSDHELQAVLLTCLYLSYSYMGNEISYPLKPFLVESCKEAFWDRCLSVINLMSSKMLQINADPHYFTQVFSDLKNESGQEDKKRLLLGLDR
Description: as §1

[6] = target: T6, CDK7/cyclinH/MAT1(h) (Homo sapiens, UniProt P50613); conditions: read-out: Inhibitory rate (%)
T6 construct: purchased Eurofins Pharma Discovery Services UK Limited (contract assay service)
Description: as §1

[7] = target: T7, CK2(h) (Homo sapiens, UniProt P68400); conditions: read-out: Inhibitory rate (%)
T7 construct: purchased Eurofins Pharma Discovery Services UK Limited (contract testing)
T7 sequence (P68400 whole entry): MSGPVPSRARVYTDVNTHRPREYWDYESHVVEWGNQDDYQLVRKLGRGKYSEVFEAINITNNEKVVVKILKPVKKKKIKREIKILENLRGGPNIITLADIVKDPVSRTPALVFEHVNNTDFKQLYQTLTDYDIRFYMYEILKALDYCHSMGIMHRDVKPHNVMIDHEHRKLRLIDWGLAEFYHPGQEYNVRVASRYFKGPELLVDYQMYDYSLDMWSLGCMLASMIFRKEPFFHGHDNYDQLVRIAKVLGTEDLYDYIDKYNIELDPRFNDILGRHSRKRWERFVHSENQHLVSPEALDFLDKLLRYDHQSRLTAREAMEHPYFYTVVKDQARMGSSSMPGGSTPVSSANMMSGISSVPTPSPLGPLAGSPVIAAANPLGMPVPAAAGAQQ
T7 sequence (P67870 whole entry partner): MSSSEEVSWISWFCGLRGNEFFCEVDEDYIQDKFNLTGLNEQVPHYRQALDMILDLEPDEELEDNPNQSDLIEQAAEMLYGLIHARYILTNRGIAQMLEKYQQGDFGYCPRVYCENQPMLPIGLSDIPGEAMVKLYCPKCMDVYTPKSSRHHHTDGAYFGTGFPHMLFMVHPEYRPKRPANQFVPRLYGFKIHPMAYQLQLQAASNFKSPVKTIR
Description: as §1

[8] = target: T8, FGFR3(h) (Homo sapiens, UniProt P22607); conditions: read-out: Inhibitory rate (%)
T8 construct: purchased Eurofins Pharma Discovery Services UK Limited (contract testing)
Description: as §1

[9] = target: T9, Flt3(h) (Homo sapiens, UniProt P36888); conditions: read-out: Inhibitory rate (%)
T9 construct: purchased Eurofins Pharma Discovery Services UK Limited (contract testing)
Description: as §1

[10] = target: T10, GSK3β(h) (Homo sapiens, UniProt P49841); conditions: read-out: Inhibitory rate (%)
T10 construct: purchased Eurofins Pharma Discovery Services UK Limited (contract testing)
T10 sequence (P49841 whole entry): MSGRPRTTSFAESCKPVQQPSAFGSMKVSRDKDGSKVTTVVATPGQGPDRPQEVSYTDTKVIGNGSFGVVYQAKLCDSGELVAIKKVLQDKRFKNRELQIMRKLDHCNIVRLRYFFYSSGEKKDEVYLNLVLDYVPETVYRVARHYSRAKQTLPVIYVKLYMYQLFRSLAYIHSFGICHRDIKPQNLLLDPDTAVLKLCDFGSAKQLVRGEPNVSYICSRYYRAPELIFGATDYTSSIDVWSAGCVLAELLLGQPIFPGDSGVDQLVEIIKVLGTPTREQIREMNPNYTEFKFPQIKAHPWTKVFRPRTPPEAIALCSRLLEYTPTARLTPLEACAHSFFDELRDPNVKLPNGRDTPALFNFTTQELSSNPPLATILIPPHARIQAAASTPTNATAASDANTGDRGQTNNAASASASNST
Description: as §1

[11] = target: T11, IGF-1R(h), activated (Homo sapiens, UniProt P08069); conditions: read-out: Inhibitory rate (%)
T11 construct: purchased Eurofins Pharma Discovery Services UK Limited (contract testing)
Description: as §1

[12] = target: T12, IKKα(h) (Homo sapiens, UniProt O15111); conditions: read-out: Inhibitory rate (%)
T12 construct: purchased Eurofins Pharma Discovery Services UK Limited (contract testing)
Description: as §1

[13] = target: T13, IRAK1(h) (Homo sapiens, UniProt P51617); conditions: read-out: Inhibitory rate (%)
T13 construct: purchased Eurofins Pharma Discovery Services UK Limited (contract testing)
Description: as §1

[14] = target: T14, JNK1α1(h) (Homo sapiens, UniProt P45983); conditions: read-out: Inhibitory rate (%)
T14 construct: purchased Eurofins Pharma Discovery Services UK Limited (contract testing)
Description: as §1

[15] = target: T15, MAPK1(h) (Homo sapiens, UniProt P27361); conditions: read-out: Inhibitory rate (%)
T15 construct: purchased Eurofins Pharma Discovery Services UK Limited
Description: as §1

[16] = target: T16, MEK1(h) (Homo sapiens, UniProt Q02750); conditions: read-out: Inhibitory rate (%)
T16 construct: purchased Eurofins Pharma Discovery Services UK Limited
Description: as §1

[17] = target: T17, MKK6(h) (Homo sapiens, UniProt P52564); conditions: read-out: Inhibitory rate (%)
T17 construct: purchased Eurofins Pharma Discovery Services UK Limited
T17 sequence (P52564 whole entry): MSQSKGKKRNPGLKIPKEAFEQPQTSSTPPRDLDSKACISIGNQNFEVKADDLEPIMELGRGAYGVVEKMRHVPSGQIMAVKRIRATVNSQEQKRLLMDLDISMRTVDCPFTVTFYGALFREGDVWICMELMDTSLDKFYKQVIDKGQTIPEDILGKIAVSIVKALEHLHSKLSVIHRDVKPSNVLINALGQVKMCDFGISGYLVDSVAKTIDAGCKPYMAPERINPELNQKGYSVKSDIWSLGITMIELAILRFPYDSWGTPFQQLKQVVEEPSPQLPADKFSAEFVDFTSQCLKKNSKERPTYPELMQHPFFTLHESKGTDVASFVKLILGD
Description: as §1

[18] = target: T18, Met(h) (Homo sapiens, UniProt P08581); conditions: read-out: Inhibitory rate (%)
T18 construct: purchased Eurofins Pharma Discovery Services UK Limited
Description: as §1

[19] = target: T19, NEK2(h) (Homo sapiens, UniProt P51955); conditions: read-out: Inhibitory rate (%)
T19 construct: purchased Eurofins Pharma Discovery Services UK Limited
Description: as §1

[20] = target: T20, PAR-1Bα(h) (Homo sapiens, UniProt Q7KZI7); conditions: read-out: Inhibitory rate (%)
T20 construct: purchased Eurofins Pharma Discovery Services UK Limited
T20 sequence (Q7KZI7 1-725 isoform Q7KZI7-4): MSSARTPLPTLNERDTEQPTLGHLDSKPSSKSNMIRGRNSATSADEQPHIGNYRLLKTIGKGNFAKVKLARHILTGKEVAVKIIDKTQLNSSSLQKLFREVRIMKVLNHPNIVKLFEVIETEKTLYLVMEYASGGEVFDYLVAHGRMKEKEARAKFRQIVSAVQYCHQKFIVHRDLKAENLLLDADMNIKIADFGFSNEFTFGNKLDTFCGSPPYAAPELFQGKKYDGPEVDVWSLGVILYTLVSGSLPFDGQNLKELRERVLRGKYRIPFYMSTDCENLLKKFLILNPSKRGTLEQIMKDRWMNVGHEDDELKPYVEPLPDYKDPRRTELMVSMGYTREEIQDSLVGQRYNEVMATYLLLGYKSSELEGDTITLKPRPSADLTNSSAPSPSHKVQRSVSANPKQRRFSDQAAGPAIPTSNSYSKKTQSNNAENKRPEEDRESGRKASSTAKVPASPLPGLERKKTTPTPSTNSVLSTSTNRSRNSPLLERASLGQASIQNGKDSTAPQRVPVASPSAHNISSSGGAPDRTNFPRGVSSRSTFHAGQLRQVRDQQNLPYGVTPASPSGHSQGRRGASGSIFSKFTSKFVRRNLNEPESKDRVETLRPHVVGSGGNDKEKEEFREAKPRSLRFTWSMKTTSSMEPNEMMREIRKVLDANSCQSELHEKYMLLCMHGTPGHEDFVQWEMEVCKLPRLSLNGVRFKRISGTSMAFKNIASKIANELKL
Description: as §1

[21] = target: T21, PDGFRβ(h) (Homo sapiens, UniProt P09619); conditions: read-out: Inhibitory rate (%)
T21 construct: purchased Eurofins Pharma Discovery Services UK Limited
Description: as §1

[22] = target: T22, PDK1(h) (Homo sapiens, UniProt O15530); conditions: read-out: Inhibitory rate (%)
T22 construct: purchased Eurofins Pharma Discovery Services UK Limited
Description: as §1

[23] = target: T23, PI3KC2α(h) (Homo sapiens, UniProt O00443); conditions: read-out: Inhibitory rate (%)
T23 construct: purchased Eurofins Pharma Discovery Services UK Limited (contract assay)
Description: as §1

[24] = target: T24, PI3Kinase(p110α(E542K)/p85α)(h) (Homo sapiens, UniProt P42336, E542K); conditions: read-out: Inhibitory rate (%)
T24 construct: purchased Eurofins Pharma Discovery Services UK Limited (contract assay)
Description: as §1

[25] = target: T25, PI3Kinase(p110α/p65α)(h) (Homo sapiens, UniProt P42336); conditions: read-out: Inhibitory rate (%)
T25 construct: purchased Eurofins Pharma Discovery Services UK Limited (contract assay)
Description: as §1

[26] = target: T26, PI3Kinase(p110β/p85α)(h) (Homo sapiens, UniProt P42338); conditions: read-out: Inhibitory rate (%)
T26 construct: purchased Eurofins Pharma Discovery Services UK Limited (contract assay)
Description: as §1

[27] = target: T27, PIP5K1α(h) (Homo sapiens, UniProt Q99755); conditions: read-out: Inhibitory rate (%)
T27 construct: purchased Eurofins Pharma Discovery Services UK Limited (contract assay)
T27 sequence (Q99755 whole entry): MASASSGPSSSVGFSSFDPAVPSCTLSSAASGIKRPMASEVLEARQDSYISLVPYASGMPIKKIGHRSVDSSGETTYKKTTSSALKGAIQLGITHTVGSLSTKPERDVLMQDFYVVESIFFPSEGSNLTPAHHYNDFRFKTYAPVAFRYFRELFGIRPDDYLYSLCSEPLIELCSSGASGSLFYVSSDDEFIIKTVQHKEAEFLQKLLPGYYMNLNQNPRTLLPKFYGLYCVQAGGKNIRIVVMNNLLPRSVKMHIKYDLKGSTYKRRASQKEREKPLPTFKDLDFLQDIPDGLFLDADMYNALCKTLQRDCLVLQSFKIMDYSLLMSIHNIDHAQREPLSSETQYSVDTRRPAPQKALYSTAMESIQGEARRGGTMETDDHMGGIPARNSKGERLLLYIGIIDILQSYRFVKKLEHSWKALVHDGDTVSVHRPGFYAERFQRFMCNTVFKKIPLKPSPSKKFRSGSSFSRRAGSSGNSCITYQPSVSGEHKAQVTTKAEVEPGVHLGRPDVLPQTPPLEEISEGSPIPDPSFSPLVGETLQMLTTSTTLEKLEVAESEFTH
Description: as §1

[28] = target: T28, PKBγ(h) (Homo sapiens, UniProt Q9Y243); conditions: read-out: Inhibitory rate (%)
T28 construct: purchased Eurofins Pharma Discovery Services UK Limited
Description: as §1

[29] = target: T29, PKCδ(h) (Homo sapiens, UniProt Q05655); conditions: read-out: Inhibitory rate (%)
T29 construct: purchased Eurofins Pharma Discovery Services UK Limited
Description: as §1

[30] = target: T30, PKCη(h) (Homo sapiens, UniProt P24723); conditions: read-out: Inhibitory rate (%)
T30 construct: purchased Eurofins Pharma Discovery Services UK Limited
T30 sequence (P24723 whole entry): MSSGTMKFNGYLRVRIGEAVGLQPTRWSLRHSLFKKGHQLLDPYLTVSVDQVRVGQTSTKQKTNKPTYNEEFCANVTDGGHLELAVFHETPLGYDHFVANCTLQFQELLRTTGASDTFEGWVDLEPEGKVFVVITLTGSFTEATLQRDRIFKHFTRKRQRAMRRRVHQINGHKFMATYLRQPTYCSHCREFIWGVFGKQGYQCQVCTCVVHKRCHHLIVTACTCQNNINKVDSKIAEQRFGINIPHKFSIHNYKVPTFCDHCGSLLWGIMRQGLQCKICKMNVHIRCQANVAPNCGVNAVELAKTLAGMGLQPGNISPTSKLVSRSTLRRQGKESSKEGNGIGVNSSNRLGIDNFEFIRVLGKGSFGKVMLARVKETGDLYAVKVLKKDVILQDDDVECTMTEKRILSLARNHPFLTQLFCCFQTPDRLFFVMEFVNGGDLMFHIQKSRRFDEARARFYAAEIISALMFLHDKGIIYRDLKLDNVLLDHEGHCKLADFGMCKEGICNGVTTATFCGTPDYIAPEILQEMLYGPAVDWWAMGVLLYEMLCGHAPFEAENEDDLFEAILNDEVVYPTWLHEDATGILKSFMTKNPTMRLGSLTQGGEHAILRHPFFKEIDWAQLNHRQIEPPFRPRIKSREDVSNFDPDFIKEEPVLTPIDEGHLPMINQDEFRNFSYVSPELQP
Description: as §1

[31] = target: T31, PKCθ(h) (Homo sapiens, UniProt Q04759); conditions: read-out: Inhibitory rate (%)
T31 construct: purchased Eurofins Pharma Discovery Services UK Limited
Description: as §1

[32] = target: T32, Pim-1(h) (Homo sapiens, UniProt P11309); conditions: read-out: Inhibitory rate (%)
T32 construct: purchased Eurofins Pharma Discovery Services UK Limited
T32 sequence (P11309 whole entry): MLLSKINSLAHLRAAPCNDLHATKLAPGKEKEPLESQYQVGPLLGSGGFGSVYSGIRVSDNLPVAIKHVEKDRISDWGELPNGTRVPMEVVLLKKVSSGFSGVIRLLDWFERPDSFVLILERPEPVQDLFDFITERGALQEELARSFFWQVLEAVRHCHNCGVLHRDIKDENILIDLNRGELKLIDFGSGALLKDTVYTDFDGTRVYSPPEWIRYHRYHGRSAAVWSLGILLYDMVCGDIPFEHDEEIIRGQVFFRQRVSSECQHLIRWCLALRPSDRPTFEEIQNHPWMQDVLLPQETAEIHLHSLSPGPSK
Description: as §1

[33] = target: T33, Plk1(h) (Homo sapiens, UniProt P53350); conditions: read-out: Inhibitory rate (%)
T33 construct: purchased Eurofins Pharma Discovery Services UK Limited
Description: as §1

[34] = target: T34, ROCK-I(h) (Homo sapiens, UniProt Q13464); conditions: read-out: Inhibitory rate (%)
T34 construct: purchased Eurofins Pharma Discovery Services UK Limited
Description: as §1

[35] = target: T35, Ret(h) (Homo sapiens, UniProt P07949); conditions: read-out: Inhibitory rate (%)
T35 construct: purchased Eurofins Pharma Discovery Services UK Limited
Description: as §1

[36] = target: T36, Ros(h) (Homo sapiens, UniProt P08922); conditions: read-out: Inhibitory rate (%)
T36 construct: purchased Eurofins Pharma Discovery Services UK Limited
Description: as §1

[37] = target: T37, Syk(h) (Homo sapiens, UniProt P43405); conditions: read-out: Inhibitory rate (%)
T37 construct: purchased Eurofins Pharma Discovery Services UK Limited
Description: as §1

[38] = target: T38, c-RAF(h) (Homo sapiens, UniProt P04049); conditions: read-out: Inhibitory rate (%)
T38 construct: purchased Eurofins Pharma Discovery Services UK Limited (contract testing)
T38 sequence (P04049 whole entry): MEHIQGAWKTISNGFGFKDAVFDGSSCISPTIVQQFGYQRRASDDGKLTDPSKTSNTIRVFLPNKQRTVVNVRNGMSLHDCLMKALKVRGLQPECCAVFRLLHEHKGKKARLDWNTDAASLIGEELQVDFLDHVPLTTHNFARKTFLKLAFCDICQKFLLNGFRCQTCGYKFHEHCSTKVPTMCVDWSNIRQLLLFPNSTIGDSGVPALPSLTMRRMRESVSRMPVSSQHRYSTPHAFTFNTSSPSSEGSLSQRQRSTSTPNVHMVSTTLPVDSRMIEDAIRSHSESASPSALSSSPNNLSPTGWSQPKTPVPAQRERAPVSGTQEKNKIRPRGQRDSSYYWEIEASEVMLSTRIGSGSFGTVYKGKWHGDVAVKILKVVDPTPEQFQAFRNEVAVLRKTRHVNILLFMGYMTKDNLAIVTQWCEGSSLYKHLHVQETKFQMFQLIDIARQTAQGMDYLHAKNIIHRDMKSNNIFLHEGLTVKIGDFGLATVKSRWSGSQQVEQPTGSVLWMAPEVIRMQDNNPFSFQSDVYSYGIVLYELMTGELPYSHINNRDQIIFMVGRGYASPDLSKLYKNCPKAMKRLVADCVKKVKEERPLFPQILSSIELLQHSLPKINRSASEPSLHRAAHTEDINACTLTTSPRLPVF
Description: as §1

[39] = target: T39, mTOR(h) (Homo sapiens, UniProt P42345)
T39 construct: purchased Eurofins Pharma Discovery Services UK Limited (contract assay)
Description: as §1

**Q.** How did the inhibition at 10 µM [1] turn out when `C=C(C)n1c(=O)n(C(C)=O)c2ncc(Br)cc21` [FD162] was run?
**A.** Its inhibition at 10 µM is -14%.

**Q.** And the inhibition at 10 µM [2]?
**A.** The inhibition at 10 µM was -6%.

**Q.** What about the inhibition at 10 µM [3] of the same compound?
**A.** Its inhibition at 10 µM is 7%.

**Q.** What about the inhibition at 10 µM [4] of the same compound?
**A.** The inhibition at 10 µM was -5%.

**Q.** What about the inhibition at 10 µM [5] of the same compound?
**A.** Its inhibition at 10 µM is 0%.

**Q.** What about the inhibition at 10 µM [6] of the same compound?
**A.** Its inhibition at 10 µM is -8%.

**Q.** And the inhibition at 10 µM [7]?
**A.** The inhibition at 10 µM was 15%.

**Q.** And the inhibition at 10 µM [8]?
**A.** Its inhibition at 10 µM is 7%.

**Q.** What about the inhibition at 10 µM [9] of the same compound?
**A.** The inhibition at 10 µM was 4%.

**Q.** And the inhibition at 10 µM [10]?
**A.** The inhibition at 10 µM was 6%.

**Q.** What about the inhibition at 10 µM [11] of the same compound?
**A.** Its inhibition at 10 µM is 0%.

**Q.** What about the inhibition at 10 µM [12] of the same compound?
**A.** The inhibition at 10 µM was 5%.

**Q.** And the inhibition at 10 µM [13]?
**A.** The inhibition at 10 µM was 9%.

**Q.** What about the inhibition at 10 µM [14] of the same compound?
**A.** Its inhibition at 10 µM is 4%.

**Q.** What about the inhibition at 10 µM [15] of the same compound?
**A.** The inhibition at 10 µM was 8%.

**Q.** What about the inhibition at 10 µM [16] of the same compound?
**A.** The inhibition at 10 µM was -2%.

**Q.** What about the inhibition at 10 µM [17] of the same compound?
**A.** The inhibition at 10 µM was 5%.

**Q.** What about the inhibition at 10 µM [18] of the same compound?
**A.** Its inhibition at 10 µM is -9%.

**Q.** And the inhibition at 10 µM [19]?
**A.** Its inhibition at 10 µM is -6%.

**Q.** And the inhibition at 10 µM [20]?
**A.** Its inhibition at 10 µM is 6%.

**Q.** What about the inhibition at 10 µM [21] of the same compound?
**A.** Its inhibition at 10 µM is -8%.

**Q.** What about the inhibition at 10 µM [22] of the same compound?
**A.** The inhibition at 10 µM was -1%.

**Q.** What about the inhibition at 10 µM [23] of the same compound?
**A.** The inhibition at 10 µM was 7%.

**Q.** And the inhibition at 10 µM [24]?
**A.** Its inhibition at 10 µM is 4%.

**Q.** And the inhibition at 10 µM [25]?
**A.** The inhibition at 10 µM was 3%.

**Q.** And the inhibition at 10 µM [26]?
**A.** The inhibition at 10 µM was -3%.

**Q.** What about the inhibition at 10 µM [27] of the same compound?
**A.** Its inhibition at 10 µM is -2%.

**Q.** What about the inhibition at 10 µM [28] of the same compound?
**A.** Its inhibition at 10 µM is 8%.

**Q.** What about the inhibition at 10 µM [29] of the same compound?
**A.** Its inhibition at 10 µM is 18%.

**Q.** And the inhibition at 10 µM [30]?
**A.** Its inhibition at 10 µM is 2%.

**Q.** What about the inhibition at 10 µM [31] of the same compound?
**A.** The inhibition at 10 µM was -3%.

**Q.** And the inhibition at 10 µM [32]?
**A.** The inhibition at 10 µM was 3%.

**Q.** And the inhibition at 10 µM [33]?
**A.** The inhibition at 10 µM was 7%.

**Q.** And the inhibition at 10 µM [34]?
**A.** The inhibition at 10 µM was -4%.

**Q.** And the inhibition at 10 µM [35]?
**A.** Its inhibition at 10 µM is 7%.

**Q.** What about the inhibition at 10 µM [36] of the same compound?
**A.** The inhibition at 10 µM was -13%.

**Q.** What about the inhibition at 10 µM [37] of the same compound?
**A.** Its inhibition at 10 µM is 0%.

**Q.** What about the inhibition at 10 µM [38] of the same compound?
**A.** The inhibition at 10 µM was -3%.

**Q.** What about the “Selectivity among 114 tumor-associated kinases” value ([39]; 10 μM, in words) of the same compound?
**A.** Its value is “selectively inhibit the activity of mTOR”.

**Q.** What about the inhibition at 10 µM ([39]; mTOR(h), read-out: Inhibitory rate (%)) of the same compound?
**A.** The inhibition at 10 µM was 95%.
